What was measured:
Type in all cases: in vivo
[1] = tested on: yellow nutsedge (Cyperus esculentus); assay: Test B pre-/postemergence plant response
Summary of the method: (§1)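 Visual scoring from 0 (no effect) to 100 (complete control) against untreated controls was done 13 to 15 days after greenhouse treatment. Chemicals were formulated in a surfactant-containing non-phytotoxic solvent and applied to soil preemergence or to 1- to 4-leaf (2-18 cm) plants postemergence.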

[2] = tested on: wild oat (Avena fatua); assay: Test B pre-/postemergence plant response
Summary of the method: as §1

[3] = tested on: wheat (Triticum aestivum); assay: Test B pre-/postemergence plant response
Summary of the method: as §1

[4] = tested on: velvetleaf (Abutilon theophrasti); assay: Test A pre-/postemergence plant response
Summary of the method: (§2)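 Soil: loam blended with sand. Formulation: non-phytotoxic solvent mixture plus surfactant, applied as preemergence directed soil spray and as postemergence spray. Scoring: visual, 0 no effect to 100 complete control, roughly 10 days post-treatment in greenhouse.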

[5] = tested on: large crabgrass (Digitaria sanguinalis); assay: Test A pre-/postemergence plant response
Summary of the method: as §2

[6] = tested on: corn (Zea mays); assay: Test A pre-/postemergence plant response
Summary of the method: as §2

[7] = tested on: morningglory (Ipomoea coccinea); assay: Test A pre-/postemergence plant response
Summary of the method: as §2

[8] = tested on: giant foxtail (Setaria faberi); assay: Test A pre-/postemergence plant response
Summary of the method: as §2

[9] = tested on: barnyardgrass (Echinochloa crus-galli); assay: Test A pre-/postemergence plant response
Summary of the method: as §2

[10] = tested on: windgrass (Apera spica-venti); assay: Test B postemergence plant response; settings: Postemergence
Summary of the method: (§3)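 Emerged plants, 1- to 4-leaf stage, treated; greenhouse 13–15 d; eye-scored vs untreated controls (0–100 scale).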

[11] = tested on: winter barley (Hordeum vulgare); assay: Test B postemergence plant response; settings: Postemergence
Summary of the method: as §3

[12] = tested on: chickweed (Stellaria media); assay: Test B postemergence plant response; settings: Postemergence
Summary of the method: as §3

[13] = tested on: canarygrass (Phalaris minor); assay: Test B postemergence plant response; settings: Postemergence
Summary of the method: as §3

[14] = Postemergence, 31 g ai/ha, scale 0 to 100, 0 no effect, 100 complete control
[15] = Postemergence, 62 g ai/ha, scale 0 to 100
[16] = Postemergence, 125 g ai/ha, scale 0 to 100
[17] = Preemergence, 62 g ai/ha, scale 0 to 100
[18] = Preemergence, 125 g ai/ha, scale 0 to 100
[19] = Postemergence, 250 g ai/ha, scale 0 to 100
[20] = Preemergence, 31 g ai/ha, 0 to 100 scale, 0 no effect, 100 complete control
[21] = Preemergence, 250 g ai/ha, scale 0 to 100
[22] = Postemergence, 125 g ai/ha, 0 to 100 scale, 0 no effect, 100 complete control
[23] = Postemergence, 500 g ai/ha, 0 to 100 scale, 0 no effect, 100 complete control
[24] = Preemergence, 125 g ai/ha, 0 to 100 scale (0 no effect, 100 complete control)
[25] = Preemergence, 500 g ai/ha, 0 to 100 scale (0 no effect, 100 complete control)
[26] = 31 g ai/ha, scale 0 to 100, 0 no effect, 100 complete control

Compound: Cc1cc(-c2ccc(Br)cc2)nn1-c1c(OC(=O)C2CC2)cnn(C)c1=O [Compound 5]
- Plant response rating, Nutsedge, Yellow [1, 14]: 0
- Plant response rating, Nutsedge, Yellow [1, 15]: 0
- Plant response rating, Nutsedge, Yellow [1, 16]: 60
- Plant response rating, Nutsedge, Yellow [1, 17]: 0
- Plant response rating, Nutsedge, Yellow [1, 18]: 0
- Plant response rating, Oat, Wild [2, 14]: 95
- Plant response rating, Oat, Wild [2, 15]: 100
- Plant response rating, Oat, Wild [2, 16]: 100
- Plant response rating, Oat, Wild [2, 19]: 100
- Plant response rating, Oat, Wild [2, 20]: 30
- Plant response rating, Oat, Wild [2, 17]: 70
- Plant response rating, Oat, Wild [2, 18]: 80
- Plant response rating, Oat, Wild [2, 21]: 95
- Plant response rating, Wheat [3, 14]: 90
- Plant response rating, Wheat [3, 15]: 100
- Plant response rating, Wheat [3, 16]: 100
- Plant response rating, Wheat [3, 19]: 100
- Plant response rating, Wheat [3, 20]: 30
- Plant response rating, Wheat [3, 17]: 70
- Plant response rating, Wheat [3, 18]: 95
- Plant response rating, Wheat [3, 21]: 98
- Plant response rating, Velvetleaf [4, 22]: 20
- Plant response rating, Velvetleaf [4, 23]: 50
- Plant response rating, Velvetleaf [4, 24]: 0
- Plant response rating, Velvetleaf [4, 25]: 20
- Plant response rating, Crabgrass, Large [5, 22]: 100
- Plant response rating, Crabgrass, Large [5, 23]: 100
- Plant response rating, Crabgrass, Large [5, 24]: 100
- Plant response rating, Crabgrass, Large [5, 25]: 100
- Plant response rating, Corn [6, 22]: 100
- Plant response rating, Corn [6, 23]: 100
- Plant response rating, Corn [6, 24]: 80
- Plant response rating, Corn [6, 25]: 90
- Plant response rating, Morningglory [7, 22]: 0
- Plant response rating, Morningglory [7, 23]: 0
- Plant response rating, Morningglory [7, 24]: 0
- Plant response rating, Morningglory [7, 25]: 0
- Plant response rating, Foxtail, Giant [8, 22]: 100
- Plant response rating, Foxtail, Giant [8, 23]: 100
- Plant response rating, Foxtail, Giant [8, 24]: 100
- Plant response rating, Foxtail, Giant [8, 25]: 100
- Plant response rating, Barnyardgrass [9, 22]: 100
- Plant response rating, Barnyardgrass [9, 23]: 100
- Plant response rating, Barnyardgrass [9, 24]: 90
- Plant response rating, Barnyardgrass [9, 25]: 100
- Plant response rating, Windgrass [10, 26]: 95
- Plant response rating, Windgrass ([10]; 62 g ai/ha, scale 0 to 100): 100
- Plant response rating, Windgrass ([10]; 125 g ai/ha, scale 0 to 100): 100
- Plant response rating, Windgrass ([10]; 250 g ai/ha, scale 0 to 100): 100
- Plant response rating, Barley [11, 26]: 30
- Plant response rating, Barley ([11]; 62 g ai/ha, scale 0 to 100): 90
- Plant response rating, Barley ([11]; 125 g ai/ha, scale 0 to 100): 95
- Plant response rating, Barley ([11]; 250 g ai/ha, scale 0 to 100): 95
- Plant response rating, Chickweed [12, 26]: 0
- Plant response rating, Chickweed ([12]; 62 g ai/ha, scale 0 to 100): 0
- Plant response rating, Chickweed ([12]; 125 g ai/ha, scale 0 to 100): 0
- Plant response rating, Chickweed ([12]; 250 g ai/ha, scale 0 to 100): 0
- Plant response rating, Canarygrass [13, 26]: 80
- Plant response rating, Canarygrass ([13]; 62 g ai/ha, scale 0 to 100): 100
- Plant response rating, Canarygrass ([13]; 125 g ai/ha, scale 0 to 100): 100
- Plant response rating, Canarygrass ([13]; 250 g ai/ha, scale 0 to 100): 100
